Data reported in patent US9616125B2, “Stable nocathiacin lyophilized injection agent” (priority 2013, dated 2017).

Key:
[1] = tested on: mycobacterium tuberculosis; conditions: cited from earlier work
[2] = tested on: vancomycin-resistant enterococcus (VRE); conditions: cited from earlier work
[3] = tested on: penicillin-resistant streptococcus pneumoniae (PRSP); conditions: cited from earlier work
[4] = tested on: methicillin-resistant staphylococcus aureus (MRSA); conditions: cited from earlier work
[5] = Aqueous solubility of nocathiacin I versus pH (shake 24 h, filtration, HPLC)
Description: Excessive purified material of nocathiacin I is added in test tubes with stopper respectively, and a certain amounts of buffer solutions with pH 2, pH 3, pH 4, pH 5, pH 6 and pH 7 are added to ensure that the solutions are in a supersaturated state all the time, and the solutions are shaken for 24 h under room temperature. Then the solutions are filtered through a 0.22 millipore filter, and the subsequent filtrate is taken and fed in a high performance liquid chromatography to measure the drug contents. The chromatogram conditions are as follows. • Chromatographic column: Waters Symmetry, 150 mm×4.6 mm, 5 μm.
Mobile phase: A. distilled water containing 0.05% TFA; and B. acetonitrile containing 0.05% TFA.
Gradient: Gradient elution for 32 min, 30%-60% B.
Column temperature: 40° C., and rate of flow: 1 ml/min
Detection wavelength: 362 nm, and sample volume: 10 μl.

Row | Molecule | effective concentration [1] | effective concentration [2] | effective concentration [3] | effective concentration [4] | concentration of nocathiacin I solution that can be obtained ([5]; pH value of the liquid formulation controlled below 6) | solubility of nocathiacin I as a function of pH ([5]; within a scope of pH 1-7, FIG. 1)
1 | nocathiacin | less than 1 μg/ml | less than 1 μg/ml | less than 1 μg/ml | less than 1 μg/ml |  | 
2 | C=C(NC(=O)c1csc(-c2nc3c(cc2O)-c2nc(cs2)C(=O)N[C@@H]([C@@H](C)O)C(=O)N/C(=C(\C)OC)c2nc(cs2)C(=O)N[C@@H]2c4nc(cs4)C(=O)N[C@@H](COC(=O)c4c5c6c(cccc6n4O)COC(=O)[C@@H](O[C@H]4C[C@](C)(O)[C@H](N(C)C)[C@H](C)O4)[C@H]2OC5)c2nc-3cs2)n1)C(N)=O.O=C(O)C(F)(F)F [nocathiacin I] |  |  |  |  | more than 0.5 mg/mL | decreases with the increase of pH value
